Read-outs that look alike come from different tables or passages of the source.
What was measured:
[1] = target: T1, CDK5/p35 (Homo sapiens, UniProt Q00535); assay: CDK5/p35 kinase inhibition (33P-ATP, histone H1); format: biochemical; conditions: 0.15 μM ATP
T1 construct: purchased ProQinase GmbH
Protocol: CDK2/Cyclin E kinase was produced in Sf9 insect cells via baculoviral infection and purified on a NiNTA column (Qiagen). […] CDK5/p35 was purchased from ProQinase GmbH.
(§1) The reactions were stopped by adding 5 μL of 3% aq H3PO4. Aliquots were spotted onto P-81 phosphocellulose (Whatman), washed 3× with 0.5% aq H3PO4 and finally air-dried.

[2] = system: K562 (human chronic myelogenous leukaemia); assay: MTT cytotoxicity assay, leukemic cell line K562; format: cell-based; conditions: three days
Description: (§2) Cytotoxicity of the compounds is the major property determining their antileukemic efficacy in vivo. One of the parameters used, as the basis for cytotoxicity assays, is the metabolic activity of viable cells. For example, a microtiter assay, which uses (3-(4,5-dimethylthiazol-2-yl)-2,5-diphenyltetrazolium bromide (MTT), is widely used to quantitate cell proliferation and cytotoxicity. This assay is widely used in drug screening programs and in chemosensitivity testing. Because only metabolically active living cells reduce MTT to correspond purple formazan dye, these assays detect viable cells exclusively. The quantity of reduced MTT corresponds to the number of vital cells in the culture.
(§3) The compounds were assayed using the following leukemic cell lines: K562 (human chronic myelogenous leukaemia), HL60 (human promyelocytic leukaemia), CEM (human lymphoblastoid leukaemia), THP1 (human monocytic cell line), MV4; 11 (acute myelocytic leukemia). All cell lines were grown in RPMI medium supplemented with fetal bovine serum and L-glutamine and maintained at 37° C. in a humidified atmosphere with 5% CO2. For cytotoxicity assays, 2000-5000 cells were seeded into each well of 96 well plate, allowed to stabilize for at least 8 h and then tested compounds were added at various concentrations ranging from 100 to 0.01 μM in triplicates. After three days, MTT solution (5 mg/ml; Sigma, St. Louis, USA) was added to cells and medium was replaced with DMSO after five hours. The absorbance was measured at 620 nm by employing a microplate reader. MTT assays were repeated 3 times for each drug application and untreated cells were used as reference.

[3] = target: T2, CDK2/Cyclin E (Homo sapiens, UniProt P24941); assay: CDK2/Cyclin E kinase inhibition (33P-ATP, histone H1); format: biochemical; conditions: 15 μM ATP
T2 construct: made in house; host or cells: Sf9 insect cells (baculovirus)
Protocol: CDK2/Cyclin E kinase was produced in Sf9 insect cells via baculoviral infection and purified on a NiNTA column (Qiagen). The kinase reactions were assayed with 1 mg/mL histone H1 in the presence of 15 μM ATP, 0.05 μCi [γ-^33P]ATP and of the test compound in a final volume of 10 μL, all in a reaction buffer (60 mM HEPES-NaOH, pH 7.5, 3 mM MgCl2, 3 mM MnCl2, 3 μM Na-orthovanadate, 1.2 mM DTT, 2.5 μg/50 μl PEG20.000). CDK5/p35 was purchased from ProQinase GmbH. The kinase reactions were assayed with 1 mg/mL histone H1 in the presence of 0.15 μM ATP, 0.05 μCi [γ-^33P]ATP and of the test compound in a final volume of 10 μL, all in a reaction buffer (60 mM HEPES-NaOH, pH 7.5, 3 mM MgCl2, 3 mM MnCl2, 3 μM Na-orthovanadate, 1.2 mM DTT, 2.5 μg/50 μl PEG20.000).
as §1

[4] = system: HL60 (human promyelocytic leukaemia); assay: MTT cytotoxicity assay, leukemic cell line HL60; format: cell-based; conditions: three days
Description: as §2, §3

[5] = system: THP1 (human monocytic cell line); assay: MTT cytotoxicity assay, leukemic cell line THP1; format: cell-based; conditions: three days
Description: as §2, §3

[6] = system: MV4;11 (acute myelocytic leukemia); assay: MTT cytotoxicity assay, leukemic cell line MV4;11; format: cell-based; conditions: three days
Description: as §2, §3

[7] = system: CEM (human lymphoblastoid leukaemia); assay: MTT cytotoxicity assay, leukemic cell line CEM; format: cell-based; conditions: three days
Description: as §2, §3

[8] = system: PANC-1 (pancreatic carcinoma); assay: MTT cytotoxicity assay, solid cancer cell line PANC-1; format: cell-based; conditions: Homo sapiens, PANC-1, 72 h, three days
Protocol: as §3, with “following” for “following leukemic”, “G361 (malignant melanoma), MCF7 (breast adenocarcinoma), PLC/PRF/5 (liver hepatoma), PANC-1 (pancreatic carcinoma) and HCT116 (colon carcinoma).” for “K562 (human chronic myelogenous leukaemia), HL60 (human promyelocytic leukaemia), CEM (human lymphoblastoid leukaemia), THP1 (human monocytic cell line), MV4; 11 (acute myelocytic leukemia).”, “DMEM” for “RPMI”, “4000-10000” for “2000-5000”, “of a” for “of”, “16” for “8”

[9] = system: MCF7 (breast adenocarcinoma); assay: MTT cytotoxicity assay, solid cancer cell line MCF7; format: cell-based; conditions: Homo sapiens, MCF7, 72 h, three days
Protocol: as §3, with “following” for “following leukemic”, “G361 (malignant melanoma), MCF7 (breast adenocarcinoma), PLC/PRF/5 (liver hepatoma), PANC-1 (pancreatic carcinoma) and HCT116 (colon carcinoma).” for “K562 (human chronic myelogenous leukaemia), HL60 (human promyelocytic leukaemia), CEM (human lymphoblastoid leukaemia), THP1 (human monocytic cell line), MV4; 11 (acute myelocytic leukemia).”, “DMEM” for “RPMI”, “4000-10000” for “2000-5000”, “of a” for “of”, “16” for “8”

[10] = system: HCT116 (colon carcinoma); assay: MTT cytotoxicity assay, solid cancer cell line HCT116; format: cell-based; conditions: Homo sapiens, HCT-116, 72 h, three days
Protocol: as §3, with “following” for “following leukemic”, “G361 (malignant melanoma), MCF7 (breast adenocarcinoma), PLC/PRF/5 (liver hepatoma), PANC-1 (pancreatic carcinoma) and HCT116 (colon carcinoma).” for “K562 (human chronic myelogenous leukaemia), HL60 (human promyelocytic leukaemia), CEM (human lymphoblastoid leukaemia), THP1 (human monocytic cell line), MV4; 11 (acute myelocytic leukemia).”, “DMEM” for “RPMI”, “4000-10000” for “2000-5000”, “of a” for “of”, “16” for “8”

[11] = system: PLC/PRF/5 (liver hepatoma); assay: MTT cytotoxicity assay, solid cancer cell line PLC/PRF/5; format: cell-based; conditions: Homo sapiens, PLC-PRF-5, 72 h, three days
Protocol: as §3, with “following” for “following leukemic”, “G361 (malignant melanoma), MCF7 (breast adenocarcinoma), PLC/PRF/5 (liver hepatoma), PANC-1 (pancreatic carcinoma) and HCT116 (colon carcinoma).” for “K562 (human chronic myelogenous leukaemia), HL60 (human promyelocytic leukaemia), CEM (human lymphoblastoid leukaemia), THP1 (human monocytic cell line), MV4; 11 (acute myelocytic leukemia).”, “DMEM” for “RPMI”, “4000-10000” for “2000-5000”, “of a” for “of”, “16” for “8”

[12] = system: G361 (malignant melanoma); assay: MTT cytotoxicity assay, solid cancer cell line G361; format: cell-based; conditions: Homo sapiens, G-361, 72 h, three days
Protocol: as §3, with “following” for “following leukemic”, “G361 (malignant melanoma), MCF7 (breast adenocarcinoma), PLC/PRF/5 (liver hepatoma), PANC-1 (pancreatic carcinoma) and HCT116 (colon carcinoma).” for “K562 (human chronic myelogenous leukaemia), HL60 (human promyelocytic leukaemia), CEM (human lymphoblastoid leukaemia), THP1 (human monocytic cell line), MV4; 11 (acute myelocytic leukemia).”, “DMEM” for “RPMI”, “4000-10000” for “2000-5000”, “of a” for “of”, “16” for “8”

[13] = system: HUVECs (human umbilical vein endothelial cells); assay: HUVEC proliferation assay (crystal violet); format: cell-based; conditions: 72 h, read-out: Inhibition of proliferation (EC50)
Protocol: To verify that novel compounds have anti-vascularisation properties, we analyzed their influence on the proliferation and migration of HUVECs. HUVECs (human umbilical vein endothelial cells) were purchased from Promocell (Heidelberg, Germany) and cultured in endothelial cell growth medium (ECGM, Promocell, Heidelberg, Germany) containing 10% FCS (Biochrom, Berlin, Germany). Experiments were performed using cells at passage 3.
For proliferation assay, 1.5×10^3 HUVECs were cultured for 24 h. Afterwards, cells were either left untreated or treated with novel compounds for 72 h. Proliferation assay was performed using crystal violet as described previously (Koltermann et al. 2007, Cell Mol. Life Sci. 64:1715-1722).

T1 sequence (Q00535 whole entry): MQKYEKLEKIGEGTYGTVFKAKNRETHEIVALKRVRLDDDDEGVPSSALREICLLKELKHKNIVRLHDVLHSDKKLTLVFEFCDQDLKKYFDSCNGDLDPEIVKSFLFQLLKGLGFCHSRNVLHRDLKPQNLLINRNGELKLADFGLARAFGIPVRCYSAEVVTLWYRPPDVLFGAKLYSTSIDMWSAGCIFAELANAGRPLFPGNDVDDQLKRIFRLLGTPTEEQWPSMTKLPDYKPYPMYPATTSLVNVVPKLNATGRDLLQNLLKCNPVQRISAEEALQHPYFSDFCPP
T1 sequence (Q15078 whole entry partner): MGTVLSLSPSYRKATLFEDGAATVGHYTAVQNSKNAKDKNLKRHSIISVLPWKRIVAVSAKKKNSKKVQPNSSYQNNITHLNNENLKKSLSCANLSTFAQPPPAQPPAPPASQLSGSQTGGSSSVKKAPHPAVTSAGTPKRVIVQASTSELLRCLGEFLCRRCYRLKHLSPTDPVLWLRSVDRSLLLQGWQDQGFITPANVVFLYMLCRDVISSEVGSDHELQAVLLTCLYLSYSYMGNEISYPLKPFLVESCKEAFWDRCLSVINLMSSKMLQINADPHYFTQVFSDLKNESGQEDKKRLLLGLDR

SMILES	IC50 [1] [µM]	IC50 [3] [µM]	IC50 ([2]; Homo sapiens, K562, 72 h) [µM]	IC50 ([4]; Homo sapiens, HL-60, 72 h) [µM]	IC50 ([5]; Homo sapiens, THP-1, 72 h) [µM]	IC50 ([6]; Homo sapiens, MV4-11, 72 h) [µM]	IC50 ([7]; Homo sapiens, 72 h) [µM]	IC50 [2] [µM]	IC50 [4] [µM]	IC50 [5] [µM]	IC50 [6] [µM]	IC50 [7] [µM]	IC50 [8] [µM]	IC50 [9] [µM]	IC50 [10] [µM]	IC50 [11] [µM]	IC50 [12] [µM]	EC50 ([13]; Homo sapiens, HUVEC) [nM]	EC50 [13] [nM]
CC(C)c1[nH]nc2c(NCc3ccc(-c4ccccn4)cc3)nc(NCCCO)nc12 [Compound 29]	0.0149	0.039	0.1	0.18	0.14	0.27	0.09												
CC(C)c1n[nH]c2c(NCc3ccc(-c4ccccn4)cc3)nc(N[C@H](C)CCO)nc12 [Compound 31]								0.39	0.24	0.26	0.31	0.21							
CC(C)c1[nH]nc2c(NCc3ccc(-c4ccccn4)cc3)nc(N3CCN(CCO)CC3)nc12 [Compound 17]	0.422		0.15	0.26	0.3	0.37	0.11						0.34	0.19	0.4	0.73	0.24	95	
CC(C)c1[nH]nc2c(NCc3ccc(-c4ccccn4)cc3)nc(N3CCOCC3)nc12 [Compound 9]	0.005		0.11	0.1	0.18	0.36	0.07						0.3	0.16	0.42	0.21	0.25	136	
CC(C)c1n[nH]c2c(NCc3ccc(-c4ccccn4)cc3)nc(NCCCN)nc12 [Compound 41]								0.47	0.56	0.27	0.35	0.43							
CC(C)c1n[nH]c2c(NCc3ccc(-c4ccccn4)cc3)nc(NCC(O)CO)nc12 (stereo not shown) [Compound 35]	0.017		0.24	0.17	0.26	0.2	0.18												
CC(C)c1n[nH]c2c(NCc3ccc(-c4ccccn4)cc3)nc(NCc3ccccc3Cl)nc12 [Compound 81]																			1330

Now from value to compound, other results behind:

IC50 [1] [µM]	IC50 [3] [µM]	SMILES	IC50 ([2]; Homo sapiens, K562, 72 h) [µM]	IC50 ([4]; Homo sapiens, HL-60, 72 h) [µM]	IC50 ([5]; Homo sapiens, THP-1, 72 h) [µM]	IC50 ([6]; Homo sapiens, MV4-11, 72 h) [µM]	IC50 ([7]; Homo sapiens, 72 h) [µM]	IC50 [2] [µM]	IC50 [4] [µM]	IC50 [5] [µM]	IC50 [6] [µM]	IC50 [7] [µM]	IC50 [8] [µM]	IC50 [9] [µM]	IC50 [10] [µM]	IC50 [11] [µM]	IC50 [12] [µM]	EC50 ([13]; Homo sapiens, HUVEC) [nM]	EC50 [13] [nM]
0.088	0.046	CC(C)c1n[nH]c2c(NCc3ccc(-c4ccccn4)cc3)nc(N[C@@H]3CCCC[C@H]3N)nc12 (relative stereo) [Compound 64]	0.1	0.09	0.04	0.09	0.05						0.08	0.22	0.34	0.14	0.15		
4.42		COc1ccc(CNc2nc(NCc3ccc(-c4ccccn4)cc3)c3n[nH]c(C(C)C)c3n2)cc1 [Compound 73]	3.95	0.78	0.67	0.97	0.89						0.44	5.3	0.99	3.94	2.62	2280	
0.204	0.322	CC(C)c1[nH]nc2c(NCc3ccc(-c4ccccn4)cc3)nc(NCCN3CCC3)nc12 [Compound 54]	0.36	0.29	0.37	0.24	0.24												

Reference: patent US9957273B2, “5-substituted 7- [4-(2-pyridyl)phenylmethylamino] -3-isopropylpyrazolo4,3-D]pyrimidine derivatives, use thereof as medicaments, and pharmaceutical compositions” (USTAV EXPERIMENTALNI BOTANIKY AV CR, V.V.I., priority 2015, dated 2018)
